The values below come from patent US8946438B2, “Benzamides, production thereof, and use thereof as medicaments” (Boehringer Ingelheim International GmbH, priority 2008, dated 2015).

This assay has as its target p38 MAP-kinase (Homo sapiens, UniProt Q16539). Put plainly: Enzymatic assay: inhibition of p38 MAP-kinase (phosphorylation of GST-tagged ATF2, chemoluminescence bead readout). The following applies: inhibitor 1 μM; activated p38 MAP-kinase 1 nM; 4 h preincubation; ATP 100 μM; ATF2 10 nM; read-out: % inhibitory effect at 1 μM. In kind it is biochemical. As to the method:
In this, the amount of a substrate phosphorylated by the kinase is quantified. The test is carried out as follows:
The kinase reaction is carried out in the presence of HEPES (20 mM, pH 7), MgCl2 (10 mM), DTT (1 mM) and TWEEN20 (0.01%). First, dimethylsulphoxide or inhibitor (final concentration: 1 μM) dissolved in dimethylsulphoxide are placed in a reaction vessel. Then the activated p38 MAP-kinase (final concentration 1 nM) is added and the mixture is incubated for 4 h at ambient temperature. Then a mixture of substrate (GST-tagged ATF2) and ATP is added and everything is incubated together for a further hour (final concentration ATP: 100 μM; final concentration ATF2: 10 nM).
The concentration of phosphorylated ATF2 is quantified by chemoluminescence-induced light emission. For this, a glutathione donor bead (final concentration: 5 μg/ml) which binds to the gluthathione on the ATF2 and phospho-ATF2 antibodies are added to the reaction mixture (final concentration: 3 nM; this binds the phosphate group added by the kinase reaction) to which a Protein A Acceptor Bead (final concentration: 5 μg/ml) binds. These components are dissolved in a buffer which contains 20 mM HEPES pH 7.0, 200 mM NaCL, 80 mM EDTA as well as 0.3% BSA. This reaction mixture is incubated in the dark for 1 hour at ambient temperature. When these beads come physically close, visible light is emitted which is measured in a photometer at 520-620 nm.
To determine the inhibitory activity of the compounds according to the invention a calculation is made to determine the percentage by which the kinase activity is inhibited at a fixed inhibitor concentration of 1 μM. The maximum activity is determined by non-inhibited kinase. The minimum activity or nonspecific background activity is determined using a reaction mixture without kinase. […] Table 2 summarises the degree of inhibition of the enzyme p38 MAP-kinase—as described hereinbefore—of the compounds according to the invention detailed in the section “Preparation of the final compounds”.

Sequence of p38 MAP-kinase (Q16539 whole entry): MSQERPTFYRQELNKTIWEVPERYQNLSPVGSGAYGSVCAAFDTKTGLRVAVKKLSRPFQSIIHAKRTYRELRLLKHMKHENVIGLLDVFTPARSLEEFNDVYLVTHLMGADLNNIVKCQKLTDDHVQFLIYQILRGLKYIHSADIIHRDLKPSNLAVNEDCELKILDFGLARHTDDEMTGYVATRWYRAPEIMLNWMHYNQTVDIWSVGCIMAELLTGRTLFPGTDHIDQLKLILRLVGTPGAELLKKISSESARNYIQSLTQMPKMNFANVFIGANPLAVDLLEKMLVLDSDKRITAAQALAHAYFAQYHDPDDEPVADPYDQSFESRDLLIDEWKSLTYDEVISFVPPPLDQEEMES

Consider `COc1c(NC(=O)c2ccc(C)c(Oc3cc(N(C)C4CCN(C)C4)ncn3)c2)cc(C(C)(C)C)cc1NS(C)(=O)=O` (centres unmarked) [4(20), N-(5-tert-butyl-3-methanesulphonylamino-2-methoxy-phenyl)-4-methyl-3-{6-[methyl-(1-methyl-pyrrolidin-3-yl)-amino]-pyrimidin-4-yloxy}-benzamide], for which the inhibition at 1 µM amounted to 95.6%.

Turning to `COc1c(NC(=O)c2ccc(C)c(Oc3cc(N4CCNCC4)ncn3)c2)cc(C(C)(C)C)cc1NS(C)(=O)=O` [5(1), N-(5-tert-butyl-3-methanesulphonylamino-2-methoxy-phenyl)-4-methyl-3-(6-piperazin-1-yl-pyrimidin-4-yloxy)-benzamide], the inhibition at 1 µM is 96.8%.

Take `COc1c(NC(=O)c2ccc(C)c(Oc3cc(C(=O)N4CCNCC4)ncn3)c2)cc(C(C)(C)C)cc1NS(C)(=O)=O` [5(2), N-(5-tert-butyl-3-methanesulphonylamino-2-methoxy-phenyl)-4-methyl-3-[6-(piperazine-1-carbonyl)-pyrimidin-4-yloxy]-benzamide x trifluoroacetic acid]: the inhibition at 1 µM turned out to be 93.2%.

For the molecule `COc1c(NC(=O)c2ccc(Cl)c(Oc3cc(C(=O)N4CCNCC4)ncn3)c2)cc(C(C)(C)C)cc1NS(C)(=O)=O` [5(3), N-(5-tert-butyl-3-methanesulphonylamino-2-methoxy-phenyl)-4-chloro-3-[6-(piperazine-1-carbonyl)-pyrimidin-4-yloxy]-benzamide], the inhibition at 1 µM turned out to be 95%.

As to `COc1c(NC(=O)c2ccc(C(F)(F)F)c(Oc3ccnc(N4CCNCC4)n3)c2)cc(C(C)(C)C)cc1NS(C)(=O)=O` [5(4), N-(5-tert-butyl-3-methanesulphonylamino-2-methoxy-phenyl)-3-(2-piperazin-1-yl-pyrimidin-4-yloxy)-4-trifluoromethyl-benzamide x trifluoroacetic acid], the inhibition at 1 µM is 45.3%.

In the case of `COc1c(NC(=O)c2ccc(Cl)c(Oc3ccnc(N4CCNCC4)n3)c2)cc(C(C)(C)C)cc1NS(C)(=O)=O` [5(5), N-(5-tert-butyl-3-methanesulphonylamino-2-methoxy-phenyl)-4-chloro-3-(2-piperazin-1-yl-pyrimidin-4-yloxy)-benzamide], the inhibition at 1 µM is 98.3%.

As to `COc1c(NC(=O)c2ccc(C)c(Oc3ccnc(CN4CCNCC4)n3)c2)cc(C(C)(C)C)cc1NS(C)(=O)=O` [5(6), N-(5-tert-butyl-3-methanesulphonylamino-2-methoxy-phenyl)-4-methyl-3-(2-piperazin-1-ylmethyl-pyrimidin-4-yloxy)-benzamide], the inhibition at 1 µM was found to be 98.3%.

Turning to `COc1c(NC(=O)c2ccc(C)c(Oc3cc(CN4CCNCC4)ncn3)c2)cc(C(C)(C)C)cc1NS(C)(=O)=O` [5(7), N-(5-tert-butyl-3-methanesulphonylamino-2-methoxy-phenyl)-4-methyl-3-(6-piperazin-1-ylmethyl-pyrimidin-4-yloxy)-benzamide], the inhibition at 1 µM was 97.8%.

With `COc1ccc(C(=O)Nc2cc(C(C)(C)C)cc(NS(C)(=O)=O)c2OC)cc1Oc1ccnc(N2CCNCC2)n1` [5(8), N-(5-tert-butyl-3-methanesulphonylamino-2-methoxy-phenyl)-4-methoxy-3-(2-piperazin-1-yl-pyrimidin-4-yloxy)-benzamide], the inhibition at 1 µM came to 98.9%.

As for `COc1c(NC(=O)c2ccc(C)c(Oc3ccnc(CN4CCNCC4)c3)c2)cc(C(C)(C)C)cc1NS(C)(=O)=O` [5(9), N-(5-tert-butyl-3-methanesulphonylamino-2-methoxy-phenyl)-4-methyl-3-(2-piperazin-1-ylmethyl-pyridin-4-yloxy)-benzamide x trifluoroacetic acid], the inhibition at 1 µM came to 98.5%.

`COc1c(NC(=O)c2ccc(F)c(Oc3ccnc(N4CCNCC4)n3)c2)cc(C(C)(C)C)cc1NS(C)(=O)=O` [5(10), N-(5-tert-butyl-3-methanesulphonylamino-2-methoxy-phenyl)-4-fluoro-3-(2-piperazin-1-yl-pyrimidin-4-yloxy)-benzamide x trifluoroacetic acid]: the inhibition at 1 µM was 94.6%.
